Source: patent US8425908B2, “Treatment with anti-ErbB2 antibodies” (Genentech, Inc., priority 1997, dated 2013)

System: ErbB2-overexpressing metastatic breast cancer
Assay: Randomized clinical study of chemotherapy with or without HERCEPTIN in patients with metastatic breast cancer
Format: in vivo, human
Source text: Eligibility Criteria Patients had to fulfill all of the following criteria to be eligible for study admission: • Metastatic breast cancer • Overexpression of the ErbB2 (HER2) oncogene (2+ to 3+ as determined by immunohistochemistry or fluorescence in situ hybridization (FISH). [Tumor expression of ErbB2 can be determined by immunohistochemical analysis, as previously described (Slamon et al., [1987] and [1989], supra), of a set of thin sections prepared from the patient's paraffin-archived tumor blocks. The primary detecting antibody used is murine 4D5 MAb, which has the same CDRs as the humanized antibody used for the treatment.
Measurable disease was defined as any mass reproducibly measurable in two perpendicular diameters by physical examination, X-ray (plain films), computerized tomography (CT), magnetic resonance imaging (MRI), ultrasound, or photographs.
Osteoblastic metastases, pleural effusions, or ascites were not considered to be measurable. Measurable lesions must be at least 1 cm in greatest dimension. Enumeration of evaluable sites of metastatic disease and number of lesions in an evaluable site (e.g. lung) had to be recorded on the appropriate Case Report Form (CRF). If a large number of pulmonary or hepatic lesions were present, the six largest lesions per site were followed. • The ability to understand and willingness to sign a written informed consent form • Women≧18 years • Suitable candidates for receiving concomitant cytotoxic chemotherapy as evidenced by screening laboratory assessments of hematologic, renal, hepatic, and metabolic functions.
Exclusion Criteria Patients with any of the following were excluded from study entry: • Prior cytotoxic chemotherapy for metastatic breast cancer Patients may have received prior hormonal therapy (e.g. tamoxifen) for metastatic disease or cytotoxic therapy in the adjuvant setting. • Concomitant malignancy that has not been curatively treated • A performance status of <60% on the Karnofsky scale • Pregnant or nursing women; women of childbearing potential, unless using effective contraception as determined by the investigator • Bilateral breast cancer (either both primary tumors must have 2+ to 3+ HER2 overexpression, or the metastatic site must have 2+ to 3+ HER2 overexpression) • Use of investigational or unlicensed agents within 30 days prior to study entry • Clinically unstable or untreated metastases to the brain (e.g. requiring radiation therapy)
Half the patients (stratified by chemotherapy) were randomized to additionally receive the HERCEPTIN® antibody (see below).
Beginning on day 7, patients received weekly administration of 2 mg/kg antibody (i.v.) over a 90-minute period. […]

[1] = median follow-up of 10.5 months

What does the source list for `CC(=O)O[C@H]1C(=O)[C@@]2(C)[C@H]([C@H](OC(=O)c3ccccc3)[C@]3(O)C[C@H](OC(=O)[C@H](O)[C@@H](NC(=O)c4ccccc4)c4ccccc4)C(C)=C1C3(C)C)[C@]1(OC(C)=O)CO[C@@H]1C[C@@H]2O` [T, paclitaxel]?
syndrome of myocardial dysfunction, Grade 3/4: 0%; AE (%), overall severe adverse events [1]: 59%; RR (%), response rates [1]: 25.0%; TTP (months), time to disease progression [1]: 4.2 months
